Measured values reported in patent US20260028336A1 (Arcus Biosciences, Inc., priority 2022, published 2026).

How the values were obtained:
Cbl-b = target: T1, Cbl-b (Homo sapiens, UniProt Q13191); assay: Cbl-b probe displacement HTRF binding assay; details: 0.4 nM biotinylated Cbl-b, 150 nM BODIPY probe
T1 construct: biotin (biotinylated)
Procedure, shortened: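 Biotinylated Cbl-b was preincubated with compound for 60 min at room temperature in HEPES/NaCl/Triton/TCEP/BSA buffer. BODIPY probe was added for 15 min, followed by streptavidin-terbium, and the HTRF signal was read. Displacement was normalised to DMSO and no-protein controls, and affinity was obtained from a four-parameter dose-response fit.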

Jurkat cells = assay: IL-2 secretion assay in CD3/CD28-activated Jurkat cells (AlphaLISA); assay type: cell-based; details: Homo sapiens, CD3/CD28 T Cell Activator, 24 h, IL-2 AlphaLISA
Procedure, shortened: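 Jurkat cells (50,000/well) were preincubated 1 h at 37° C with compound in a 16-point 1:2 series spanning 10 μM to 300 pM final. Cells were then activated with CD3/CD28 T cell activator, and secreted IL-2 was read by AlphaLISA. EC50 came from 4-parameter logistic fits.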

T1 sequence (Q13191 whole entry, species assumed): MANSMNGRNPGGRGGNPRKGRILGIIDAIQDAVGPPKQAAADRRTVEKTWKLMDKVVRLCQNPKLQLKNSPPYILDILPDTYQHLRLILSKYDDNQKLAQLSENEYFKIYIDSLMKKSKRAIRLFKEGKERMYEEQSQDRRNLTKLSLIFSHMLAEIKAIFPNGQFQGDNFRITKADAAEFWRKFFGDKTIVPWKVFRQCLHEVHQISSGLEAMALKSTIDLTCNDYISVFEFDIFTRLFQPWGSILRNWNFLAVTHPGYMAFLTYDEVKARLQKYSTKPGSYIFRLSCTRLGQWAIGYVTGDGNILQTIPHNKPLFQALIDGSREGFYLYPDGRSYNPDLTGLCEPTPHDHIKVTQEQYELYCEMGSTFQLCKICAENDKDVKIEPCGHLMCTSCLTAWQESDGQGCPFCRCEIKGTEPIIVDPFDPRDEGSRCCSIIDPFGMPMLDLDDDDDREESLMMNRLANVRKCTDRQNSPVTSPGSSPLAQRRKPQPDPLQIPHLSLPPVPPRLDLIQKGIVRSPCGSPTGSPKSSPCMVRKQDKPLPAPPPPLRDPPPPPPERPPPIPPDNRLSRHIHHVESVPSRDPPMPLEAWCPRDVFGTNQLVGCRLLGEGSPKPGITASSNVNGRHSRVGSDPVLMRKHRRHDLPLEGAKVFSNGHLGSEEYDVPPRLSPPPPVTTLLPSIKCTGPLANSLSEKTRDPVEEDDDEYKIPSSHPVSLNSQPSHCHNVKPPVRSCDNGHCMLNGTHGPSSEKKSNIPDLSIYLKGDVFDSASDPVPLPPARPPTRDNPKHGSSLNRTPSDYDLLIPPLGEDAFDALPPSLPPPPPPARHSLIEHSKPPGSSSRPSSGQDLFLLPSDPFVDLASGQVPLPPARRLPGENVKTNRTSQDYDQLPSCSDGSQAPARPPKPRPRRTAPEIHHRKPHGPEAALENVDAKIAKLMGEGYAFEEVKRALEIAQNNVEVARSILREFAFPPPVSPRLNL

IC50 (Cbl-b) | EC50 (Jurkat cells) | SMILES
< 0.1 µM | < 0.1 µM | C[C@H]1CCCN(Cc2cc3c(C4CC4)cn(-c4cccc([C@]5(c6nncn6C)C[C@H](F)C5)c4)c(=O)c3[nH]2)C1 [Example 130, trans-4-cyclopropyl-6-[3-[3-fluoro-1-(4-methyl-1,2,4-triazol-3-yl)cyclobutyl]phenyl]-2-[[(3S)-3-methylpiperidin-1-yl]methyl]-1H-pyrrolo[2,3-c]pyridin-7-one]
< 0.1 µM | < 0.1 µM | CC1CC(c2cccc(-n3cc(C4CC4)c4cc(CN5CCCC[C@@H]5C)[nH]c4c3=O)c2)(c2nncn2C)C1 (stereo partly drawn) [Example 43, 4-cyclopropyl-6-{3-[3-methyl-1-(4-methyl-4H-1,2,4-triazol-3-yl)cyclobutyl]phenyl}-2-{[(2S′)-2-methylpiperidin-1-yl]methyl}-1H,6H,7H-pyrrolo[2,3-c]pyridin-7-one]
0.1 to 1 µM | 1 to 5 µM | CC1CC(c2cccc(-n3cc(C4CC4)c4cc(CN5CCCC(F)(F)C5)[nH]c4c3=O)c2)(c2nncn2C)C1 (stereo not drawn) [Example 66, 4-cyclopropyl-2-[(3,3-difluoropiperidin-1-yl)methyl]-6-{3-[(1r)-3-methyl-1-(4-methyl-4H-1,2,4-triazol-3-yl)cyclobutyl]phenyl}-1H,6H,7H-pyrrolo[2,3-c]pyridin-7-one]
< 0.1 µM | 0.1 to 1 µM | C[C@@H]1CN(Cc2nc3c(C4CC4)cn(-c4cccc([C@]5(c6nncn6C)C[C@H](C)C5)c4)c(=O)c3[nH]2)CCO1 [Example 110, 7-cyclopropyl-5-[3-[3-methyl-1-(4-methyl-1,2,4-triazol-3-yl)cyclobutyl]phenyl]-2-[[(2R)-2-methylmorpholin-4-yl]methyl]-3H-imidazo[4,5-c]pyridin-4-one]
0.1 to 1 µM | 0.1 to 1 µM | C[C@H]1CCCN(Cc2cc3c(C4CC4)cn(-c4cccc(C5(Cn6nccn6)CC(F)(F)C5)c4)c(=O)c3[nH]2)C1 [Example 122, 4-cyclopropyl-6-[3-[3,3-difluoro-1-(triazol-2-ylmethyl)cyclobutyl]phenyl]-2-[[(3S)-3-methylpiperidin-1-yl]methyl]-1H-pyrrolo[2,3-c]pyridin-7-one]
< 0.1 µM | < 0.1 µM | C[C@H]1CCCN(Cc2cc3c(C4CC4)cn(-c4cccc([C@]5(c6nncn6C)C[C@@H](F)C5)c4)c(=O)c3[nH]2)C1 [Example 129, cis-4-cyclopropyl-6-[3-[3-fluoro-1-(4-methyl-1,2,4-triazol-3-yl)cyclobutyl]phenyl]-2-[[(3S)-3-methylpiperidin-1-yl]methyl]-1H-pyrrolo[2,3-c]pyridin-7-one]
< 0.1 µM | < 0.1 µM | CC1CC(c2cccc(-n3cc(C4CC4)c4cc(CN5CCO[C@H](C)C5)[nH]c4c3=O)c2)(c2nncn2C)C1 (stereo partly drawn) [Example 45, 4-cyclopropyl-6-{3-[3-methyl-1-(4-methyl-4H-1,2,4-triazol-3-yl)cyclobutyl]phenyl}-2-{[(2R)-2-methylmorpholin-4-yl]methyl}-1H,6H,7H-pyrrolo[2,3-c]pyridin-7-one]
< 0.1 µM | 0.1 to 1 µM | Cn1cnnc1[C@]1(c2cccc(-n3cc(C4CC4)c4c(C#N)c[nH]c4c3=O)c2)C[C@H](C)C1 (single isomer, unassigned) [Example 14, 4-Cyclopropyl-7-oxo-6-{3-[(1r,3s)-3-methyl-1-(4-methyl-4H-1,2,4-triazol-3-yl)cyclobutyl]phenyl}-1H,6H,7H-pyrrolo[2,3-c]pyridine-3-carbonitrile]
0.1 to 1 µM | 1 to 5 µM | Cn1cnnc1[C@]1(c2cccc(-n3cc(C4CC4)c4nc[nH]c4c3=O)c2)C[C@@H](C)C1 (single isomer, unassigned) [Example 12, 7-cyclopropyl-5-{3-[(1s,3r)-3-methyl-1-(4-methyl-4H-1,2,4-triazol-3-yl)cyclobutyl]phenyl}-3H,4H,5H-imidazo[4,5-c]pyridin-4-one]
< 0.1 µM | 0.1 to 1 µM | C[C@H]1CCCN(Cc2cc3c(C4CC4)cn(-c4cccc([C@H](c5nncn5C(F)F)C5CCC5)c4)c(=O)c3[nH]2)C1 [Example 154, 6-(m-{(R)-cyclobutyl[4-(difluoromethyl)-4H-1,2,4-triazol-3-yl]methyl}phenyl)-2-{[(S)-3-methyl-1-piperidyl]methyl}-4-cyclopropyl-1,6-dihydro-1,6-diaza-7-indenone]
< 0.1 µM | < 0.1 µM | Cn1cnnc1C1(c2cccc(-n3cc(C4CC4)c4cc(CN5CCC6(CC6)C5)[nH]c4c3=O)c2)CC(F)(F)C1 [Example 88, 2-({5-azaspiro[2.4]heptan-5-yl}methyl)-4-cyclopropyl-6-{3-[3,3-difluoro-1-(4-methyl-4H-1,2,4-triazol-3-yl)cyclobutyl]phenyl}-1H,6H,7H-pyrrolo[2,3-c]pyridin-7-one]
< 0.1 µM | 0.1 to 1 µM | C[C@H]1CCCN(Cc2cc3ncn(-c4cccc(C5(c6nncn6C)CC(F)(F)C5)c4)c(=O)c3[nH]2)C1 [Example 120, 3-{3-[3,3-Difluoro-1-(4-methyl-4H-1,2,4-triazol-3-yl)cyclobutyl]phenyl}-6-{[(3S)-3-methylpiperidin-1-yl]methyl}-3H,4H,5H-pyrrolo[3,2-d]pyrimidin-4-one]
0.1 to 1 µM | 1 to 5 µM | CC1CC(c2cccc(-n3cc(C4CC4)c4cc[nH]c4c3=O)c2)(c2nncn2C)C1 (stereo not drawn) [Example 4, 4-cyclopropyl-6-[3-[3-methyl-1-(4-methyl-1,2,4-triazol-3-yl)cyclobutyl]phenyl]-1H-pyrrolo[2,3-c]pyridin-7-one]
< 0.1 µM | < 0.1 µM | CC1CC(c2cccc(-n3cc(C4CC4)c4cc(CNC5(CO)CCC5)[nH]c4c3=O)c2)(c2nncn2C)C1 (stereo not drawn) [Example 42, 4-cyclopropyl-2-({[1-(hydroxymethyl)cyclobutyl]amino}methyl)-6-{3-[3-methyl-1-(4-methyl-4H-1,2,4-triazol-3-yl)cyclobutyl]phenyl}-1H,6H,7H-pyrrolo[2,3-c]pyridin-7-one]
< 0.1 µM | 0.1 to 1 µM | CC1CC(c2cccc(-n3cc(C4CC4)c4cc(CN5C[C@H]6C[C@@H]5CO6)[nH]c4c3=O)c2)(c2nncn2C)C1 (stereo partly drawn) [Example 51, 4-cyclopropyl-6-{3-[3-methyl-1-(4-methyl-4H-1,2,4-triazol-3-yl)cyclobutyl]phenyl}-2-{[(1R,4R)-2-oxa-5-azabicyclo[2.2.1]heptan-5-yl]methyl}-1H,6H,7H-pyrrolo[2,3-c]pyridin-7-one]
< 0.1 µM | < 0.1 µM | CO[C@H]1C[C@](c2cccc(-n3cc(C4CC4)c4cc(CN5CCC[C@H](C)C5)[nH]c4c3=O)c2)(c2nncn2C)C1 [Example 101, trans-4-cyclopropyl-6-[3-[3-methoxy-1-(4-methyl-1,2,4-triazol-3-yl)cyclobutyl]phenyl]-2-[[(3S)-3-methylpiperidin-1-yl]methyl]-1H-pyrrolo[2,3-c]pyridin-7-one]
< 0.1 µM | 0.1 to 1 µM | CC1CC(c2cccc(-n3cc(C4CC4)c4cc(CN5CC(F)(F)C5)[nH]c4c3=O)c2)(c2nncn2C)C1 (stereo not drawn) [Example 58, 4-cyclopropyl-2-[(3,3-difluoroazetidin-1-yl)methyl]-6-{3-[3-methyl-1-(4-methyl-4H-1,2,4-triazol-3-yl)cyclobutyl]phenyl}-1H,6H,7H-pyrrolo[2,3-c]pyridin-7-one]
< 0.1 µM | 0.1 to 1 µM | CC(C)[C@H]1CN(C)CCN1Cc1cc2c(C3CC3)cn(-c3cccc(C4(c5nncn5C)CC5(CC5)C4)c3)c(=O)c2[nH]1 [Example 73, 4-cyclopropyl-2-{[(2S)-4-methyl-2-(propan-2-yl)piperazin-1-yl]methyl}-6-{3-[5-(4-methyl-4H-1,2,4-triazol-3-yl)spiro[2.3]hexan-5-yl]phenyl}-1H,6H,7H-pyrrolo[2,3-c]pyridin-7-one]
< 0.1 µM | < 0.1 µM | CC1CC(c2cccc(-n3cc(C4CC4)c4c(C#N)c(CN5CCC[C@H](C)C5)[nH]c4c3=O)c2)(c2nncn2C)C1 (mixture of isomers) [Example 134, 4-Cyclopropyl-2-{[(3S)-3-methylpiperidin-1-yl]methyl}-7-oxo-6-{3-[(1R,3S)-3-methyl-1-(4-methyl-4H-1,2,4-triazol-3-yl)cyclobutyl]phenyl}-1H,6H,7H-pyrrolo[2,3-c]pyridine-3-carbonitrile]
< 0.1 µM | 1 to 5 µM | Cn1cncc1-c1c[nH]c2c(=O)n(-c3cccc([C@]4(c5nncn5C)C[C@@H](C)C4)c3)cc(C3CC3)c12 (single isomer, unassigned) [Example 34]
0.1 to 1 µM | 0.1 to 1 µM | C[C@H]1CCCN(Cc2cc3c(C4CC4)cn(-c4cccc(C5(c6nnco6)CC(F)(F)C5)c4)c(=O)c3[nH]2)C1 [Example 121, 4-cyclopropyl-6-[3-[3,3-difluoro-1-(1,3,4-oxadiazol-2-yl)cyclobutyl]phenyl]-2-[[(3S)-3-methylpiperidin-1-yl]methyl]-1H-pyrrolo[2,3-c]pyridin-7-one]
